Where two headings read alike, the source gives them in different places.
Columns and labels:
[1] = tested on: HaCaT human keratinocytes; assay: Scratch assay, keratinocyte migration, Example 3; format: cell-based; details: LLEC-treated cells, N-acetylcysteine 5 mM 1 h pretreatment, IGF-1R inhibitor picropodophyllin 50 nM
HUVEC cells [2] = assay: EF-induced reorientation of endothelial cells (orientation index Oi); format: cell-based, human
Protocol: HUVEC cells were seeded in a trough formed by two parallel (1 cm apart) strips of glass coverslip (No. 1, length of 22 mm) fixed to the base of the dish with silicone grease. Scratch lines were made perpendicular to the long axis of the chamber with a fine sterile needle and used as reference marks for directed cell migration. Cells were incubated for 24-48 hours (37° C., 5% CO2) before a roof coverslip was applied and sealed with silicone grease. The final dimensions of the chamber, through which current was passed, were 22×10×0.2 mm. Agar-salt bridges not less than 15 cm long were used to connect silver/silver-chloride electrodes in beakers of Steinberg's solution (58 mM NaCl, 0.67 mM KCl, 0.44 mM Ca(NO3)2, 1.3 mM MgSO4, 4.6 mM Trizma base, pH 7.8-8.0), to pools of excess culture medium at either side of the chamber. Field strengths were measured directly at the beginning of, the end of and during each experiment. […] (50 μM), the Rho kinase inhibitor Y27632 (50 μM), both Akt and Rho kinase inhibitors (10 μM each) or latrunculin (50 nM) for 1 hour before EF stimulation. The same concentration of drug was present during EF exposure in a CO2 incubator.
A series of images was taken with an image analyser immediately before EF exposure and at 4, 8 and 24 hours of EF exposure. Cell orientation was quantified as an orientation index (Oi), which is defined as Oi=cos 2(α), where a is the angle formed by the long axis of a cell with a line drawn perpendicular to the field lines. A cell with its long axis parallel to the vector of the EF will have an Oi of −1, and a cell with its long axis exactly perpendicular to the EF vector will have an Oi of +1. A randomly oriented population of cells will have an average Oi {defined as [Σn cos 2(α)]÷n} of 0. The significance of this two-dimensional orientation distribution against randomness was calculated using Rayleigh's distribution. A long:short axis ratio was calculated for assessment of elongation.

HUVEC cells [3] = assay: EF-induced elongation of endothelial cells (long:short axis ratio); format: cell-based, human; details: versus control
Protocol: HUVEC cells were seeded in a trough formed by two parallel (1 cm apart) strips of glass coverslip (No. 1, length of 22 mm) fixed to the base of the dish with silicone grease. Scratch lines were made perpendicular to the long axis of the chamber with a fine sterile needle and used as reference marks for directed cell migration. Cells were incubated for 24-48 hours (37° C., 5% CO2) before a roof coverslip was applied and sealed with silicone grease. The final dimensions of the chamber, through which current was passed, were 22×10×0.2 mm. Agar-salt bridges not less than 15 cm long were used to connect silver/silver-chloride electrodes in beakers of Steinberg's solution (58 mM NaCl, 0.67 mM KCl, 0.44 mM Ca(NO3)2, 1.3 mM MgSO4, 4.6 mM Trizma base, pH 7.8-8.0), to pools of excess culture medium at either side of the chamber. Field strengths were measured directly at the beginning of, the end of and during each experiment. No fluctuations in field strength were observed. […] (50 μM), the Rho kinase inhibitor Y27632 (50 μM), both Akt and Rho kinase inhibitors (10 μM each) or latrunculin (50 nM) for 1 hour before EF stimulation. The same concentration of drug was present during EF exposure in a CO2 incubator.
A series of images was taken with an image analyser immediately before EF exposure and at 4, 8 and 24 hours of EF exposure. Cell orientation was quantified as an orientation index (Oi), which is defined as Oi=cos 2(α), where a is the angle formed by the long axis of a cell with a line drawn perpendicular to the field lines. A cell with its long axis parallel to the vector of the EF will have an Oi of −1, and a cell with its long axis exactly perpendicular to the EF vector will have an Oi of +1. […] The significance of this two-dimensional orientation distribution against randomness was calculated using Rayleigh's distribution. A long:short axis ratio was calculated for assessment of elongation.
HUVEC cells elongated dramatically in an EF. […] We quantified the elongation of the cells using a long:short axis ratio. […]

[4] = drug present 1 hour before and during EF exposure

| Compound | orientation response of cells in an EF (HUVEC cells [2]; [4]) | long:short axis ratio / elongation response in EF-treated cells (HUVEC cells [3]) | further results |
| --- | --- | --- | --- |
| COc1cc([C@@H]2c3cc4c(cc3[C@H](O)[C@H]3COC(=O)[C@@H]23)OCO4)cc(OC)c1OC [IGF-1R inhibitor, picropodophyllin] |  |  | LLEC-increased keratinocyte migration in presence of blocker [1]: attenuated the increased keratinocyte migration |
| COc1cc2ncnc(Nc3ccc(Cl)cc3F)c2cc1OC [VEGFR inhibitor, 4-[(4′-chloro-2′-fluoro)phenylamino]-6,7-dimethoxyquinazoline] | completely abolished |  |  |
| N#CC(=C(/N)Sc1ccccc1N)/C(C#N)=C(\N)Sc1ccccc1N [U0126] |  |  | orientation index Oi (HUVEC cells [2]): 0.33±0.03; orientation response of cells in an EF (HUVEC cells [2]): decreased the orientation to a similar extent |
| CC(=O)N[C@@H](CS)C(=O)O [N-Acetyl Cysteine] |  |  | LLEC-increased keratinocyte migration in presence of blocker [1]: failed to reproduce the increased migration; LLEC-increased keratinocyte migration in presence of blocker ([1]; listed as N-acetyl cysteine): prevented |
| C[C@@H](N)[C@H]1CC[C@H](C(=O)Nc2ccncc2)CC1 [Y27632] | decreased the orientation response significantly | significantly decreased |  |
| 1-L-6-hydroxymethyl-chiro-inositol 2-[(R)-2-O-methyl-3-O-octadecylcarbonate] [Akt inhibitor] | significantly decreased | significantly decreased |  |
| C/C1=C/C(=O)O[C@@H]2C[C@@H](CC[C@H](C)/C=C\C=C\CC1)O[C@@](O)([C@@H]1CSC(=O)N1)C2 [Latrunculin A] | suppressed the orientation response significantly | completely abolished |  |

— US11832662B2, “Methods and devices for preventing viral transmission” (priority 2020, dated 2023)
